Results: patent US7220824B1, “Integrin-mediated drug targeting” (Bayer Aktiengesellschaft, priority 2000, dated 2007)
Read-outs that look alike come from different tables or passages of the source.

Legend:
[1] = test system: hemopoietic stem cells (bone marrow cells); test: CSF-induced proliferation of hemopoietic stem cells; type: cell-based, mice; conditions: Mus musculus, Bone marrow cell, 168 h, read-out: IC50, CSF-induced proliferation of hemopoietic stem cells, mouse bone marrow cells, recombinant murine GM-CSF, 7 days, colony count
Method: Bone marrow cells are flushed out of the femur of mice. 10^5 cells are incubated in McCoy 5A medium (0.3% agar) together with recombinant murine GM-CSF (Genzyme; parent cell colony formation) and the substances (10^−4 to 100 μg/ml) at 37° C. and 7% CO2. 7 days later, the colonies (<50 cells) and clusters (17–50 cells) are counted.

[2] = test system: SW480; test: Growth inhibition test (MTT), cytotoxic action on tumour cell lines; type: cell-based; conditions: Homo sapiens, SW480, 144 h, read-out: IC50 values of the cytotoxic action on tumour cell lines, SW480
Method: (§1) The human large intestine cell lines SW 480 and HT29 (ATCC No. CCL 228 and HTB38), the human breast cell lines MDA-MB 231, MCF-7 and BT20 (ATCC No. HTB-, 26, 22 and 23) and the mouse melanoma cell line B16F 10 (CRL 6475) were grown to confluence in Roux dishes in RPMI 1640 medium with addition of 10% FCS. They were then trypsinized and taken up in RPMI plus 10% FCS to a cell count of 50,000 cells or, for B16F10, 20,000 cells per ml. 100 μl of cell suspension/well were added to a 96 microwell plate and incubated at 37° C. for 1 day in a CO2 incubator. A further 100 μl of RPMI medium and 1 μl of DMSO were then added with the test substances. The growth was checked after day 6. For this, 25 μl of MTT solution (3-(4,5-dimethylthiazol-2-yl)-2,5-diphenyltetrazolium bromide) was added to each well at a starting concentration of 5 mg/ml of H2O. The plate was incubated at 37° C. for 5 hours in a CO2 incubator. The medium was then aspirated and 100 μl of i-propanol/well were added. After shaking with 100 μl of H2O for 30 min, the extinction was measured at 595-nm using a Multiplate Reader (BIO-RAD 3550-UV).
(§2) The cytostatic action is indicated in Table 2 as an IC50 value, in each case for the individual cell lines.

[3] = test system: HT 29; test: as above; type: cell-based; conditions: Homo sapiens, HT-29, 144 h, read-out: IC50 values of the cytotoxic action on tumour cell lines, HT 29
Method: as §1, §2

[4] = test system: BT20; test: as above; type: cell-based; conditions: Homo sapiens, BT-20, 144 h, read-out: IC50 values of the cytotoxic action on tumour cell lines, BT20
Method: as §1, §2

[5] = test system: MCF7; test: as above; type: cell-based; conditions: Homo sapiens, MCF7, 144 h, read-out: IC50 values of the cytotoxic action on tumour cell lines, MCF7
Method: as §1, §2

[6] = test system: B16F10; test: as above; type: cell-based; conditions: Mus musculus, B16-F10, 144 h, read-out: IC50 values of the cytotoxic action on tumour cell lines, B16F10
Method: as §1, §2

[7] = test system: MDA-MB 231; test: as above; type: cell-based; conditions: Homo sapiens, MDA-MB-231, 144 h, read-out: IC50 values of the cytotoxic action on tumour cell lines, MDA-MB 231
Method: as §1, §2

[8] = target: T1, αvβ3 receptor (αvβ3 from human A375 cells) (Homo sapiens, UniProt P05106+P06756); test: αvβ3 binding test (echistatin displacement, WGA SPA beads)
T1 construct: αvβ3 from human A375 cells was purified analogously to a procedure which was described by Wong et al; endogenous in cells; host or cells: human A375 cells; the receptor was purified from the cells and used detergent-solubilised (n-octyl-glucopyranoside)
T1 sequence (P06756 31-889 limits assumed): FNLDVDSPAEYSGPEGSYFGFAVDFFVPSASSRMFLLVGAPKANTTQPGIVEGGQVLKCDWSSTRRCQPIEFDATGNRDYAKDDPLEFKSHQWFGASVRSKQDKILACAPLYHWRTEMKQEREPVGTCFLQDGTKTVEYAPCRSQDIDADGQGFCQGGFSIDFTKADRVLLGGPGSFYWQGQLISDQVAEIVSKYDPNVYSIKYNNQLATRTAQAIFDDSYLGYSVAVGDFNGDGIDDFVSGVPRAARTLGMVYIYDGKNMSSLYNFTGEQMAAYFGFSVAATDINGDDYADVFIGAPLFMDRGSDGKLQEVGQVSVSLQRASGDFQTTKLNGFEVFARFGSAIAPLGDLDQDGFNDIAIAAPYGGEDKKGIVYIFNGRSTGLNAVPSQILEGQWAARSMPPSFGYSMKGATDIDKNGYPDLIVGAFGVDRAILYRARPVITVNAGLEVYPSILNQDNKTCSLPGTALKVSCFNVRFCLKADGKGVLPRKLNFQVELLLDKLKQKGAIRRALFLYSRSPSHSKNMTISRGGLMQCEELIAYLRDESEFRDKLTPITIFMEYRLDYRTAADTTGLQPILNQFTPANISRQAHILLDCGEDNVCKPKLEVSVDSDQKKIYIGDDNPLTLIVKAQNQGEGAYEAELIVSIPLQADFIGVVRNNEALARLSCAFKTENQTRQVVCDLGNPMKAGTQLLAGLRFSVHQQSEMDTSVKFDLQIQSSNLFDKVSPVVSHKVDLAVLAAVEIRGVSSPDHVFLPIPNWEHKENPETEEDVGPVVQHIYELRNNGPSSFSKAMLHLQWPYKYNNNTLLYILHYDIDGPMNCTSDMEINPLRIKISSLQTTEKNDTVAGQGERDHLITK
T1 sequence (P06756 891-1048 partner limits assumed): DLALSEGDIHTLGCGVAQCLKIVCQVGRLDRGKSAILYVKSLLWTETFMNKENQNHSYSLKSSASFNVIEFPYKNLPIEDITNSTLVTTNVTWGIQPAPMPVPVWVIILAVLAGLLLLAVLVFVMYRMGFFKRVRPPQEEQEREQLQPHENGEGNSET
T1 sequence (P05106 27-788): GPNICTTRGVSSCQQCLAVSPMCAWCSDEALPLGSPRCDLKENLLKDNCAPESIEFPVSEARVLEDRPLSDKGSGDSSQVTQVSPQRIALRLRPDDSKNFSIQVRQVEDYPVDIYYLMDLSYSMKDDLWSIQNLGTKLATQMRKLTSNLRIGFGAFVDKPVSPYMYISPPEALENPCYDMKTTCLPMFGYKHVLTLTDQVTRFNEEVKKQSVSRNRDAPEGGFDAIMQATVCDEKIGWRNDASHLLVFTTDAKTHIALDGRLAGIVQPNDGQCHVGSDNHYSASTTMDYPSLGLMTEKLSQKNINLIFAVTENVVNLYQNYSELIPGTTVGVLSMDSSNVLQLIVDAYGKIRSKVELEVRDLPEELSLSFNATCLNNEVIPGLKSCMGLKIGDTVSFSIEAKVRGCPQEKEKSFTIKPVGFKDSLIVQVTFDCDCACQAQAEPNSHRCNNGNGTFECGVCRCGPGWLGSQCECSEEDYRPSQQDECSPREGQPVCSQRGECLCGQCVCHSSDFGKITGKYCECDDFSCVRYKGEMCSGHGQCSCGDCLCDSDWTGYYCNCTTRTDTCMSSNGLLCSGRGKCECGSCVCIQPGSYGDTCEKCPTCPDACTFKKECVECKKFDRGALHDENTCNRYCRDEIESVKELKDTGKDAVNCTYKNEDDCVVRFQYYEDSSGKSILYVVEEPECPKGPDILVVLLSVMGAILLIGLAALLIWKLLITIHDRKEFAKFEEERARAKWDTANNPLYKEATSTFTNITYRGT
Method: αvβ3 from human A375 cells was purified analogously to a procedure which was described by Wong et al. (Molecular Pharmacology, 50, 529–537 (1996)). In each case, 10 μl of αvβ3 (5 ng) in TBS pH 7.6, 2 mM CaCl2, 1 mM MgCl2, 1% n-octyl-glucopyranoside (Sigma); 10 μl of test substance in TBS pH 7.6, 0.1% DMSO and 45 μl of TBS pH 7.6, 2 mM CaCl2, 1 mM MgCl2, 1 mM MnCl2 were incubated at room temperature for 1 h. In each case, 25 μl of WGA SPA beads (Amersham, 4 mg/ml) and 10 μl of echistatin ([…], Amersham, chloramine-T labelled) were then added. After 16 hours at room temperature, the samples were measured in a scintillation measuring apparatus (Wallac 1450).

[9] = test system: human breast cancer xenograft MX1; test: In-vivo inhibition of tumour growth using a nude mouse model; parameters: species or system athymic nude mice (NMRI nu/nu strain); conditions: subcutaneous MX1 xenograft in nude mice; 40 mg/kg given on day 1–3 and 14–16; T/C in percent
From the text: In all in-vivo experiments for investigating the inhibition of tumour growth, athymic nude mice (NMRI nu/nu strain) were used. The tumour was developed by serial passage in nude mice. The human origin of the tumour was confirmed by isoenzymatic and immunohistochemical methods.
The tumour was implanted subcutaneously in both flanks of nu/nu nude mice 6 to 8 weeks old. The treatment was started, depending on the doubling time, as soon as the tumours had reached a diameter of 5–7 mm. The mice were assigned to the treatment group or the control group (5 mice per group having 8–10 assessable tumours) by randomization. The individual tumours of the control group all grew progressively.
The size of the tumours was measured in two dimensions by means of a slide gauge. The tumour volume, which correlated well with the cell count, was then used for all assessments. The volume was calculated according to the formula “length×breadth×breadth/2” ([a×b^2]/2, a and b represent two diameters arranged at right angles).
The values of the relative tumour volume (RTV) were calculated for each individual tumour by dividing the tumour size on day X with the tumour size on day 0 (at the time of randomization). […]
The inhibition of the increase of the tumour volume (tumour volume of the test group/control group, T/C, in percent) was the final measured value. […]

Row | SMILES | IC50 [1] [µg/mL] | IC50 [2] [nM] | IC50 [3] [nM] | IC50 [4] [nM] | IC50 [5] [nM] | IC50 [6] [nM] | IC50 [7] [nM] | IC50 [8] [nM] | optimal T/C (tumour volume of the test group/control group) [9] | IC50 ([8]; αvβ3 purified from human A375 cells, labelled echistatin, read-out: IC50 values of the binding to the αvβ3 receptor) [nM]
1 | CCCNC(=O)Nc1cccc(S(=O)(=O)Nc2cccc(C(CC(=O)O)NC(=O)Nc3ccc(NC(=S)N[C@@H](Cc4c[nH]cn4)C(=O)N[C@H](C(=O)O[C@]4(CC)C(=O)OCc5c4cc4n(c5=O)Cc5cc6ccccc6nc5-4)C(C)C)cc3)c2)c1 (stereo partly drawn) [Example 3.13] | 0.04 | 200 | 90 | 150 | 100 | 200 | 200 | 14 | – | –
2 | CC[C@@]1(OC(=O)[C@@H](NC(=O)[C@H](Cc2cnc[nH]2)NC(=S)Nc2cccc(C(CC(=O)O)NS(=O)(=O)c3ccc(-c4cccc(NC(=O)Nc5nc6ccccc6[nH]5)c4)cc3)c2)C(C)C)C(=O)OCc2c1cc1n(c2=O)Cc2cc3ccccc3nc2-1 (stereo partly drawn) [Example 3.8] | 0.025 | 350 | 200 | 400 | 200 | 800 | 200 | 25 | 15.9 | –
3 | CCCNC(=O)Nc1cccc(S(=O)(=O)Nc2cccc(C(CC(=O)O)NC(=O)CCCC(=O)NCC(=O)N[C@@H](CC(C)C)C(=O)O[C@]3(CC)C(=O)OCc4c3cc3n(c4=O)Cc4cc5ccccc5nc4-3)c2)c1 (stereo partly drawn) [Example 3.20] | 0.1 | – | – | – | – | – | – | – | – | 265
4 | CC[C@@]1(OC(=O)[C@@H](NC(=O)[C@H](Cc2c[nH]cn2)NC(=S)Nc2ccc(NC(=O)NC(CC(=O)O)c3cccc(NS(=O)(=O)c4cccc(NC(=N)N)c4)c3)cc2)C(C)C)C(=O)OCc2c1cc1n(c2=O)Cc2cc3ccccc3nc2-1 (stereo partly drawn) [Example 3.5] | 0.02 | 200 | 150 | 500 | 150 | 900 | 150 | 36 | – | –
